Data: patent US4189426A, “Recombinant hormonal compositions and method” (Hoffmann-La Roche, Inc., priority 1978, dated 1980)
No end group written: not given here.

Assays:
[1] = conformational, immunological and biological activity of Example 8 and 9 recombinants compared with native hormone; settings: Examples 8 and 9, present tense, no data
pigeon crop-sac = assay: local crop-sac assay in the pigeon (prolactin / lactogenic activity); type: in vivo; settings: Table 10; total dose 120 μg; mean ± SEM, number of birds in parentheses
Procedure: The growth-promoting activity of PL-HGH, the unpurified recombinant of Example 1 (fraction IV), [Cys(Cam)^53 -HGH-(1-134)], [Cys(Cam)^165, 182, 189 -HGH-(141-191)] and saline control were determined by the rat tibia test of Greenspan et al, Endocrinology 45, 455 (1949) and by the local crop-sac assay in the pigeon according to Lyons, Proc. Soc. Exp. Biol. 35, 645 (1937) and Nicoll, Endocrinology 80, 641 (1967). Amino acid compositions of acid and carboxypeptidase hydrolysates were determined in an automatic amino acid analyzer (model 120B, Beckman Instruments). For the analysis of tryptophan, the methanesulfonic acid hydrolysates were used. Amino-terminal residue and sequence analyses were preformed by the dansyl-Edman procedure. Isoelectric focusing was carried out in 8 M urea. Prolactin activity was estimated by the pigeon crop-sac assay. Microcomplement fixation experiments were performed with rabbit antisera to HCS. The gel-double-diffusion technique of Ouchterlony was done using 1% agar in 0.01 M phosphate buffer of pH 7.5. Exclusion chromatography of the purified fragments or the recombinant was performed on a Sephadex G-100 column (1.5×60 cm; V0 =35 ml) in 10 mM NH4 HCO3 (pH 8.4) at 21°. Circular dichroism (CD) spectra were obtained by a spectropolarimeter (Cary model 60) equipped with a circular dichroism attachment (model 6002). Microcomplement fixation was performed with the guinea pig antiserum to ovine prolactin. The gel double-diffusion technique of Ouchterlony was carried out with 1% agar in 10 mM phosphate buffer (pH 7.5). The prolactin activity was estimated by the local crop-sac assay in the pigeon.

antiserum to prolactin = assay: gel double-diffusion technique of Ouchterlony; type: binding
Procedure: Exclusion chromatography of the purified fragments or the recombinant was performed on a Sephadex G-100 column (1.5×60 cm; V0 =35 ml) in 10 mM NH4 HCO3 (pH 8.4) at 21°. Circular dichroism (CD) spectra were obtained by a spectropolarimeter (Cary model 60) equipped with a circular dichroism attachment (model 6002). Microcomplement fixation was performed with the guinea pig antiserum to ovine prolactin. The gel double-diffusion technique of Ouchterlony was carried out with 1% agar in 10 mM phosphate buffer (pH 7.5). The prolactin activity was estimated by the local crop-sac assay in the pigeon.

[2] = Birk and Li, Proc. Natl. Acad. Sci. U.S.A. 75(5), 2155 (1978); cited from earlier work

Row | Substance | conformational, immunological and biological activity, in words [1] | Response (dry mucosal weight) (pigeon crop-sac) [mg] | precipitin line (antiserum to prolactin) | biological activity, in words [2]
1 | [Cys(Cam)^53 ]-HGH-(1-134)+(Lys^135,136,138, Glu^137,139, Nle^170, Ala^165,182,189)-HGH-(135-191) | analogous conformational, immunological and biological activity as native HGH |  |  | 
2 | PRL-(1-53): NH2-terminal portion, residues 1-53, of ovine prolactin from fibrinolysin digestion (TPVCPNGPGNCQVSLRDLFDRAVMVSHYIHNLSSEMFNEFDKRYAQGKGFITM; ends and bridges not checked; cysteine pairing not given here; UniProt P01240 31-83, looked up, fragment) |  | 10.1 ± 2.6 | neither fragment gave a precipitin line | inactive
